{
  "source": "patent US5976523A",
  "about": "“Method for healing compromised tissues using pyrimidine derivatives” (Mitsui Pharmaceuticals, Inc., priority 1995, dated 1999)",
  "key": {"TMK1 cells [1]": {"system": "TMK1 cells", "assay": "TMK1 cell migration in Boyden's chamber", "format": "cell-based", "details": "4 hours", "experimental": "TMK1 cells, low-differentiating epithelial cells, were treated with trypsin. […] The culture medium in the lower well was then subjected to fixing and staining, and cells which had migrated therein were counted. Experiments were conducted concurrently in three chambers.\nEach value will be presented as a mean ±S.D. and with respect to each compound, numbers of cells will be presented in the order of a) control, b) each pyrimidine compound (whose concentration will be specifically indicated), c) 10 ng/ml of EGF, and d) a mixed solution of each pyrimidine compound + EGF."}, "PDGF-A mRNAs [2]": {"system": "PDGF-A mRNAs", "assay": "Northern blot analysis of PDGF-A mRNA expression in cultured rat SMCs", "format": "cell-based", "details": "vs serum-free medium", "experimental": "SMCs were prepared following the method proposed by Ross and Klebanoff in \"J. Cell. Biol.\", 50, 159 ff, 1971 with partial modifications. A rat thoracic aorta was excised. After the tunica externa was peeled off, the tunica media and the tunica intima were minced into 2-3 mm^2. The minced sections were placed standstill in a 25-cm^2 flask which contained Waymouth's MB 752/1 medium containing 10% FBS and 80 ng/ml of gentamycin (product of Schering-Plough Corp.), followed by incubation at 37° C. for 2 to 3 weeks in the presence of 5% carbon dioxide gas (primary culture). The same volume of a trypsin-EDTA solution was added to the flask. After the sections were treated at 37° C. for 5 minutes to peel off cells, the cells were diluted with 10% FBS-Waymouth's MB 752/1 medium and then subcultured (second generation). Subculture was successively conducted likewise whenever the SMC became confluent. In the following experiments, the cells from the 5th generation to the 12th generation were employed.\nAfter reach in confluence of cells, the cultured SMCs were cultured for 2 days in a serum-free medium to avoid influence of serum. The SMCs were then added with thrombin (1.0 U/ml) or serotonin (5 μM), followed by incubation at 37° C. for 6 hours under which bring about induction of PDGF-A mRNAs at the maximum. To prevent dissociation of ribosomes and mRNAs, cycloheximide (100 μg/ml) was added 5 minutes before cells were collected.\nPreparation of a polysome fraction and extraction of RNAs were conducted following the method proposed by Kasper, et al. in \"J. Biol. Chem.\", 267, 508 ff, 1992 with slight modifications. The cells, which had been collected by the treatment with trypsin, were washed with PBS containing cycloheximide (100 μg/ml). A cell precipitate was then added with 500 μl of a high-salt lysis buffer (20 mM Tris-HCl pH 7.5, 250 mM NaCl, 5 mM MgCl2, 0.1% Noni det P-40, 0.2% DOC) for homogenization. The homogenate was centrifuged under 12,000×g at 4° C. for 10 minutes. The resulting supernatant was added with 67 μl of a heparine mix (7.4 mg/ml heparine, 1.1M NaCl, 15 mM DTT and RNasin). 200 μl of the extract were layered on 5 ml of 0.5-1.25M linear sucrose gradient (which contained 20 mM Tris-HCl pH 7.4, 10 mM NaCl, 3 mM MgCl2), followed by centrifugation under 45,000 rpm for 90 minutes in a \"Hitachi RP55ST\". While monitoring the absorbance at 260 nm, ten (10) fractions were obtained. To prepare samples for the extraction of RNAs, the fractions were individually added with SDS and proteinase K to give final concentrations of 1% and 0.2 mg/ml, respectively. Subsequent to incubation at 37° C. for 1 hour, each fraction was extracted once with 1/2 volume of phenol, twice with 1/2 volume aliquots of chloroform, and once with the equal volume of chloroform, whereby proteins were removed. The water layer was added with glycogen (20 μg/ml) as a coprecipitant and then with 0.03M of sodium acetate, and RNAs were caused to precipitate with 2 volumes of ethanol.\nAfter RNAs were incubated at 65° C. for 5 minutes in a solution containing 60% of formamide, 5.9% of formaldehyde and the equal volume of MOPS buffer (10 mM MOPS pH 7.0, 4 mM NaOAc, 0.5 mM EDTA), electrophoresis was conducted across 1.2% agarose gels containing the equal volume of MOPS buffer so that RNAs were. isolated. After the gel was washed with 20 volumes of SSC, RNAs were blotted overnight to a Gene Screen Plus membrane by the capillary method. Fixing of the RNAs was conducted by exposing them for 1 minute at a distance of 10 cm from a 15-W sterilamp. Using a \"QuickHyb Hybridization Solution\" (product of Strategene Ltd.), hybridization was conducted following the instruction manual attached to the solution. Results of autoradiography were quantitated with reference to the NIH Image. […]"}, "PDGF-A mRNAs [3]": {"system": "PDGF-A mRNAs", "assay": "Polysome distribution (translation) of PDGF-A mRNAs in rat SMCs", "format": "cell-based", "experimental": "SMCs were prepared following the method proposed by Ross and Klebanoff in \"J. Cell. […] A rat thoracic aorta was excised. After the tunica externa was peeled off, the tunica media and the tunica intima were minced into 2-3 mm^2. The minced sections were placed standstill in a 25-cm^2 flask which contained Waymouth's MB 752/1 medium containing 10% FBS and 80 ng/ml of gentamycin (product of Schering-Plough Corp.), followed by incubation at 37° C. for 2 to 3 weeks in the presence of 5% carbon dioxide gas (primary culture). The same volume of a trypsin-EDTA solution was added to the flask. After the sections were treated at 37° C. for 5 minutes to peel off cells, the cells were diluted with 10% FBS-Waymouth's MB 752/1 medium and then subcultured (second generation). Subculture was successively conducted likewise whenever the SMC became confluent. In the following experiments, the cells from the 5th generation to the 12th generation were employed. After reach in confluence of cells, the cultured SMCs were cultured for 2 days in a serum-free medium to avoid influence of serum. The SMCs were then added with thrombin (1.0 U/ml) or serotonin (5 μM), followed by incubation at 37° C. for 6 hours under which bring about induction of PDGF-A mRNAs at the maximum. To prevent dissociation of ribosomes and mRNAs, cycloheximide (100 μg/ml) was added 5 minutes before cells were collected. […] Biol. Chem.\", 267, 508 ff, 1992 with slight modifications. The cells, which had been collected by the treatment with trypsin, were washed with PBS containing cycloheximide (100 μg/ml). A cell precipitate was then added with 500 μl of a high-salt lysis buffer (20 mM Tris-HCl pH 7.5, 250 mM NaCl, 5 mM MgCl2, 0.1% Noni det P-40, 0.2% DOC) for homogenization. The homogenate was centrifuged under 12,000×g at 4° C. for 10 minutes. The resulting supernatant was added with 67 μl of a heparine mix (7.4 mg/ml heparine, 1.1M NaCl, 15 mM DTT and RNasin). 200 μl of the extract were layered on 5 ml of 0.5-1.25M linear sucrose gradient (which contained 20 mM Tris-HCl pH 7.4, 10 mM NaCl, 3 mM MgCl2), followed by centrifugation under 45,000 rpm for 90 minutes in a \"Hitachi […]\". While monitoring the absorbance at 260 nm, ten (10) fractions were obtained. […] Subsequent to incubation at 37° C. for 1 hour, each fraction was extracted once with 1/2 volume of phenol, twice with 1/2 volume aliquots of chloroform, and once with the equal volume of chloroform, whereby proteins were removed. The water layer was added with glycogen (20 μg/ml) as a coprecipitant and then with 0.03M of sodium acetate, and RNAs were caused to precipitate with 2 volumes of ethanol. After RNAs were incubated at 65° C. for 5 minutes in a solution containing 60% of formamide, 5.9% of formaldehyde and the equal volume of MOPS buffer (10 mM MOPS pH 7.0, 4 mM NaOAc, 0.5 mM EDTA), electrophoresis was conducted across 1.2% agarose gels containing the equal volume of MOPS buffer so that RNAs were. isolated. After the gel was washed with 20 volumes of SSC, RNAs were blotted overnight to a Gene Screen Plus membrane by the capillary method. Fixing of the RNAs was conducted by exposing them for 1 minute at a distance of 10 cm from […]. Using a \"QuickHyb Hybridization Solution\" (product of Strategene Ltd.), hybridization was conducted following the instruction manual attached to the solution. Results of autoradiography were quantitated with reference to the NIH Image. […]"}, "TMK1 cells [4]": {"system": "TMK1 cells", "assay": "Morphological change of TMK1 cells", "format": "cell-based", "details": "EGF alone 10 ng/ml, day 1"}, "[5]": {"system": "primary cultured gastric mucosal cells", "assay": "Wound repair model with primary cultured gastric mucosal cells", "format": "cell-based, rabbit", "details": "for area of the wounded region (mean±S.D.): EGF alone 10 ng/ml", "experimental": "Primary cultured gastric mucosal cells were prepared by mechanically peeling and mincing the gastric mucosa of a rabbit having a body weight of 2 kg and then digesting the minced gastric mucosa with 0.07% collagenase. The primary cultured gastric mucosal cells were cultured at a cell concentration of 3.3×10^5 cells/ml in F-12 culture medium containing 10% fetal calf serum added therein. For this cultivation, a culture dish (60 mm in diameter) coated with collagen type I was used. […] Using an anti-BrdU antibody, the cells in the S phase were stained to identify proliferated cells.\nTheir effects on the process of restoration were measured under the above-described parameters. […] In each of the control group and the medicament-added groups, the area of the wounded region was measured at the 0th hour, 12th hour, 24th hour, 36th hour and 48th hour. The measurement results will be given in this order.\nThe control group and the groups added with the medicament at the respective concentrations were each subjected to the experiment with n=5. The results will each be presented as a (mean±S. D.) mm2. A test of significance was conducted relative to the control group. * stands for p<0.05, ** for p<0.01, *** for p<0.001. A further test of significance was conducted relative to a group added with 10 ng/ml of EGF. + stands for p<0.05, and ++ for <0.01."}},
  "note": "Structures can show the parent of a compound that is named as a salt.",
  "data": [
    {"compound": "CN1C(=O)Cc2cnc(N3CCCCC3)nc21", "values": [
      {"measurement": "numbers of cells counted (migrated), mean ±S.D.", "setting": "TMK1 cells [1]; compound 0.1 mM + EGF 10 ng/ml", "value": "20.9±3.9"},
      {"measurement": "numbers of cells counted (migrated), mean ±S.D.", "setting": "TMK1 cells [1]; compound alone, 0.1 mM", "value": "2.9±1.0"}
    ]},
    {"compound": "CCC1CCN(c2ncc3c(n2)N(C)C(=O)C3)CC1", "note": "[2-(4-ethylpiperidino)-7-methyl-6-oxo-5,6-dihydro(7H)pyrro[2,3-d]pyrimidinemaleate]", "values": [
      {"measurement": "numbers of cells counted (migrated), mean ±S.D.", "setting": "TMK1 cells [1]; compound 0.1 mM + EGF 10 ng/ml", "value": "144±3.1"},
      {"measurement": "numbers of cells counted (migrated), mean ±S.D.", "setting": "TMK1 cells [1]; compound alone, 0.1 mM", "value": "28.6±18.4"}
    ]},
    {"compound": "CN1C(=O)C(C)(C)c2cnc(N3CCCCC3)nc21", "note": "[2-piperidino-5,5,7-trimethyl-6-oxo-5,6-dihydro(7H)pyrro[3,4-d]pyrimidine maleate]", "values": [
      {"measurement": "numbers of cells counted (migrated), mean ±S.D.", "setting": "TMK1 cells [1]; compound 0.1 mM + EGF 10 ng/ml", "value": "147.2±13.2"},
      {"measurement": "numbers of cells counted (migrated), mean ±S.D.", "setting": "TMK1 cells [1]; compound alone, 0.1 mM", "value": "33±12.6"}
    ]},
    {"compound": "NCCc1c[nH]c2ccc(O)cc12", "note": "[serotonin, reference compound]", "values": [
      {"measurement": "fold induction at 5 µM", "setting": "PDGF-A mRNAs [2]; Rattus norvegicus, 6 h, sole addition of serotonin (5 μM), read-out: expression amount of 1.7 kb PDGF-A mRNAs compared with control", "value": 1.7},
      {"measurement": "translation state of the three kinds of PDGF-A mRNAs", "setting": "PDGF-A mRNAs [3]; serotonin alone", "value": "all in translated forms"}
    ]},
    {"compound": "EGF: epidermal growth factor", "values": [
      {"measurement": "morphological changes", "setting": "TMK1 cells [4]", "value": "significant morphological changes were observed as early as day 1, presenting scattering"},
      {"measurement": "area of the wounded region (mean±S.D.)", "setting": "[5]; 0th hour", "value": "2.06±0.06", "unit": "mm2"},
      {"measurement": "area of the wounded region (mean±S.D.)", "setting": "[5]; 12th hour", "value": "0.91±0.03", "unit": "mm2"},
      {"measurement": "area of the wounded region (mean±S.D.)", "setting": "[5]; 24th hour", "value": "0.46±0.15", "unit": "mm2"},
      {"measurement": "area of the wounded region (mean±S.D.)", "setting": "[5]; 36th hour", "value": "0.08±0.04", "unit": "mm2"},
      {"measurement": "area of the wounded region (mean±S.D.)", "setting": "[5]; 48th hour", "value": 0, "unit": "mm2"},
      {"measurement": "effect on migration, proliferation and restoration of the cells", "setting": "[5]; EGF alone 1-10 ng/ml", "value": "promoted migration and proliferation of the cells in a concentration-dependent manner and accelerated the speed of restoration"}
    ]},
    {"compound": "thrombin", "values": [
      {"measurement": "expression amount of 1.7 kb PDGF-A mRNAs compared with control", "setting": "PDGF-A mRNAs [2]; sole addition of thrombin (1.0 U/ml)", "value": 1.5, "unit": "times"},
      {"measurement": "translation state of 1.7 kb, 2.3 kb and 2.9 kb PDGF-A mRNAs", "setting": "PDGF-A mRNAs [3]; thrombin alone", "value": "both those in a translated form and those in the non-translated form"}
    ]}
  ]
}
